Legend:
naïve CD4+ T cells [1] = experiment: Treg cell in vitro differentiation of naïve CD4+ T cells (flow cytometry of Foxp3); format: cell-based, mouse; settings: sphinganine 5 μM, three days; for Foxp3 protein expression: anti-CD3, anti-CD28, TGFβ 5 ng/ml, IL-2 10 ng/ml, vs vehicle DMSO, FIG. 4A/4C
Experimental: (§1) FIG. 4. Sphinganine promoted the Treg cell in vitro generation and suppressed the inflammatory Th17 cell formation. The YFP-negative CD4^+non-Treg naïve T cells were FACS-sorted (1 ×10^5 cells in 250 μl complete medium) from the Foxp3Cre-YFP mice. The naive T cells were activated with the anti-CD3 and anti-CD28 for three days, in the presence or absence of cytokine TGFβ (5 ng/ml) and IL-2 (10 ng/ml) for Treg cells and TGFβ (5 ng/ml), IL-6 (20 ng/ml) and anti-IFNy (10 μg/ml) for Th17 cells. A: flow cytometry analysis of Foxp3 protein expression after induction of Treg cell formation with sphinganine (5 μM) in the presence of cytokine TGFβ (5 ng/ml) or vehicle control DMSO (no TGFβ). B: Flow cytometry analysis of IL-17 protein expression after induction of Th17 cell formation with TGFβ (5 ng/ml), IL-6 (20 ng/ml) and anti-IFNy (10 μg/ml) in the presence or absence of sphinganine (5 μM). C: Flow cytometry analysis of Foxp3 protein expression after induction of Treg cell formation in the presence of TGFβ (5 ng/ml) and L- serine (5 μM), 3-KDS (5 μM), shinganine (5 μM), dihydroceramide (50 nM), ceramide (50 nM), sphingosine (1 μM), sphingosine-1-phosphate (1 μM), shinganine-1-phosphate (1 μM), or vehicle control DMSO (TGFβ only). D: Structures of sphingolipids, as indicated, and sphingolipid biosynthetic pathway are depicted. The numbers in each FACS plot show the percentages of the indicated cell population within the total population of cells shown in the FACS plot.
Mouse primary T cell culture. Complete medium was used for cell culture and was prepared by supplementing RPMI 1640 plain medium with 10% fetal calf serum, penicillin/streptomycin antibiotics and non-essential amino acids. For Treg and Th17 cell in vitro differentiation, naïve splenic T cells were purified from the Sptic2^+/+Foxp3Cre-YFP wild type mice using the flow cytometry sorter. […]
(§2) Flow Cytometry. […] Samples were run on the LSR II and analyzed using the Flowjo software (FlowJo, LLC, BD). […]

naïve CD4+ T cells [2] = experiment: Th17 cell in vitro differentiation of naïve CD4+ T cells (flow cytometry of IL-17); format: cell-based, mouse; settings: sphinganine 5 μM, three days
Experimental: as §1, with “D: Structures of sphingolipids, as indicated, and sphingolipid biosynthetic pathway are depicted. The numbers in each FACS plot show the percentages of the indicated cell population within the total population of cells shown in the FACS plot.” left out
as §2

EAE mice = experiment: EAE mouse model for multiple sclerosis (MOG35-55 immunization), clinical scoring; format: in vivo; settings: C57BL/6 mice, sphinganine 1000 μg/kg body weight intraperitoneally, one injection every two days, day 1 to day 15, FIG. 5
Experimental: EAE induction and monitoring. Each mouse was subcutaneously immunized with 200 μg MOG35-55 peptide emulsified in Freund's Complete Adjuvant. Pertussis toxin (400 ng per mouse) was injected intraperitoneally. Where indicated, mice were intraperitoneally injected with sphinganine (every other day from the day of immunization to the end of the experiments). EAE symptoms were scored every day using the following scoring standard: 0, no sign; 1, limp tail; 2, paraparesis (incomplete paralysis of 1 or 2 hind limbs); 3, paraplegia (complete paralysis of 2 hind limbs); 4, paraplegia with forelimb weakness or paralysis; 5, moribund state or death. For the mouse welfare reason, we sacrificed the mice if the score reached 3. […] C57BL/6 mice were subcutaneously immunized with 200 μg MOG35-55 peptide emulsified in Freund's Complete Adjuvant to induce EAE development. Pertussis toxin (400 ng per mouse) was injected intraperitoneally. Mice were intraperitoneally injected with sphinganine (1000 μg/kg body weight, one injection every two days, from day 1 to day 15). EAE symptoms were scored every day.

## CCCCCCCCCCCCCCC[C@@H](O)[C@@H](N)CO [sphinganine]
naïve CD4+ T cells [1]; Treg cell-inducing condition (anti-CD3, anti-CD28, TGFβ, IL-2)
  Treg cell in vitro generation / Treg cell formation: promoted
naïve CD4+ T cells [1]
  Foxp3 protein expression: increase
naïve CD4+ T cells [1]; listed as Sphinganine
  Foxp3 protein expression: further increased
naïve CD4+ T cells [2]; Th17 cell-differentiation condition: TGFβ 5 ng/ml, IL-6 20 ng/ml, anti-IFNy 10 μg/ml, FIG. 4B
  IL-17 production / IL-17 protein expression: reduced
naïve CD4+ T cells [2]; TGFβ, IL-6, anti-IFNy
  inflammatory Th17 cell formation: suppressed
EAE mice
  EAE clinical scores / EAE development: reduced
EAE mice; listed as Sphinganine
  EAE clinical scores / EAE development: ameliorated EAE development
